Calls of active or inactive are those of the source. The rule behind the calls is not given here.

The target of assay [1] is T1, Alpha-synuclein (Homo sapiens, UniProt P37840). The assay can be described thus: Inhibition of alpha-Synuclein (unknown origin) aggregation incubated for 72 hrs by ThT-based fluorescence analysis.
For assay [2], the target named is T1, Alpha-synuclein. The assay can be described thus: Inhibition of alpha-Synuclein (unknown origin) aggregation assessed as alteration in typical alpha-Syn "S" shaped aggregation kinetics by measuring reduction in oligomeric nuclei in lag phase at 30 uM measured for 86 hrs by ThT-based fluorescence analysis.
Assay [3] has as its target T1, Alpha-synuclein. Nature of the assay: Inhibition of alpha-Synuclein (unknown origin) aggregation assessed as alteration in typical alpha-Syn "S" shaped aggregation kinetics by measuring reduction in aggregation rate in elongation phase at 30 uM measured for 86 hrs by ThT-based fluorescence analysis.
Assay [4] concerns the target T1, Alpha-synuclein. Nature of the assay: Inhibition of alpha-Synuclein (unknown origin) aggregation assessed as alteration in typical alpha-Syn "S" shaped aggregation kinetics by measuring weakening of primary nucleation in lag phase at 30 uM measured for 86 hrs by ThT-based fluorescence analysis.

For the molecule `COc1cc(/C=C/C(=O)CC(=O)/C=C/c2ccc(O)c(OC)c2)ccc1O` [CURCUMIN], in assay [1], the IC50 stood at 3.3 µM.
For the molecule `COc1cc(/C=C/C(=O)C(=Cc2ccc(O)cc2)C(=O)/C=C/c2ccc(O)c(OC)c2)ccc1O`, the inhibition result in assay [2], in assay [3] and in assay [4] was “Active” throughout. Besides, the IC50 in assay [1] worked out at 4.39 µM.

Broadly, the IC50 is the concentration that inhibits the measured activity by half. Read a low IC50 as greater potency in that assay.

The values are drawn from ChEMBL document CHEMBL5329214, “4-Arylidene curcumin derivatives in vitro inhibit α-Synuclein aggregation and disaggregate the preformed fibril” (Bioorg Med Chem, 2023).
